This is an account of results in ChEMBL document CHEMBL1157539, “Thousands of chemical starting points for antimalarial lead identification” (Nature, 2010).

The assay relates to Plasmodium falciparum. The assay is described as follows: GSK_TCMDC: Inhibition of Plasmodium falciparum 3D7 in whole erythrocytes, using parasite LDH activity as an index of growth. The assay is classed as functional, organism-based. The following applies: Plasmodium falciparum, 3D7.
`CCN(CC)Cc1ccc2c(=O)cc(CCc3cccc(F)c3F)n(CC(=O)N(Cc3ccc(-c4ccc(C(F)(F)F)cc4)cc3)C(C)C)c2c1` showed an XC50 of 782 nM.

`c1ccc2[nH]c(-c3ccc(-c4ccc(CN5CCN(c6ccncc6)CC5)cc4)cc3)nc2c1` had an XC50 of 164 nM.

In turn, `Cc1cccc(C(=O)N2CCN(Cc3cccc(NC(=O)c4ccco4)c3)CC2)c1` yielded an XC50 of 761 nM. To `COc1ccc(C2C(C(=O)Nc3cc(C)ccc3OC)c3ccccc3C(=O)N2C)cc1` (stereo not drawn) belongs 982 nM; to `CCCCCn1c(Sc2ccc(C#N)c([N+](=O)[O-])c2)nnc1-c1cc(OC)cc(OC)c1`, 956 nM. `COc1cc2nccc(Nc3ccc(OCc4ccc(NC(C)=O)cc4)cc3)c2cc1OC` registered an XC50 of 553 nM. `CC(C)CNCc1cccc(-c2cccc(CN(CCCN3CCN(C)CC3)C(=O)CCC3CCCC3)c2)c1`: the XC50 was determined as 624 nM. To `Fc1cccc(COc2ccc(Nc3ncnc4sc(C#Cc5ncc[nH]5)cc34)cc2Cl)c1` belongs 134 nM.

Take `CS(=O)(=O)CCNCc1nc(-c2ccc3c(Nc4ccc(Cl)cc4F)ccnc3c2)cs1`: the XC50 amounted to 1080 nM. Consider `CO/N=C(\C)c1ccc2c(c1)CCN(CCC1CCC(NC(=O)/C=C/c3ccc(F)cc3)CC1)CC2` (stereo not drawn), for which the XC50 stood at 1070 nM. `O=C(c1ccccc1)N(Cc1ccccc1-c1ccc(CNCCc2ccccc2)cc1)C1CCN(Cc2ccccc2)CC1` returned an XC50 of 995 nM.

For `CS(=O)(=O)c1ccc(CCNCc2ccc(-c3ccc(CN(C(=O)c4ccco4)C4CCN(Cc5ccccc5)CC4)cc3)nc2)cc1`, the XC50 was 884 nM. For `Cc1cc(N(C)C)nc(Nc2ccc(NC(=O)C3CCCCC3)cc2)n1`, the XC50 amounted to 1110 nM. Regarding `CC(C)(C)C/C=C\c1ccc(C(=O)NCC2CC2)cc1`, the XC50 stood at 850 nM. `N#Cc1ccc(C=Cc2nccc3c2[nH]c2ccccc23)cc1` displayed an XC50 of 643 nM. To `Nc1c2c(nc3ccc(NC(=O)c4ccccc4)cc13)CCCC2` belongs 611 nM; to `O=C(NCCN1CCC(c2ccncc2)CC1)c1cccc(Nc2nccc(Nc3ccc(Oc4ccccc4)cc3)n2)c1`, 168 nM; to `COc1cc(C2NCC3(CCOCC3)c3cc4c(cc32)OCCO4)cc(OC)c1OC` (stereo not drawn), 169 nM.

Take `Cc1cc(N[C@@H](CC(C)C)C(=O)NCCc2ccccc2)nc(NCCc2ccc(F)cc2)n1`: the XC50 amounted to 771 nM.

On to `Cc1ccccc1OCC(O)CN1CCC(C2CCN(CC(O)COc3ccccc3C)CC2)CC1` (stereo not drawn), for which the XC50 amounted to 307 nM. Regarding `Cc1cc(O)c(CN(C)Cc2ccc(N(C)C)cc2)cc1C(C)C`, the XC50 came to 550 nM.

Regarding `CCC(C)NC(=O)CN1CN(c2ccccc2)C2(CCN(C(=O)c3ccc4ccccc4c3)CC2)C1=O` (stereo not drawn), the XC50 stood at 627 nM. In turn, `CCOc1cc(C(=O)NC2CCN(Cc3ccccc3)CC2)ccc1-c1nc2cc(Cl)c(Cl)cc2[nH]1` showed an XC50 of 469 nM. `Cc1[nH]c(C)c(-c2ccc(OCCn3cnc(Cl)c3Cl)cc2)c(=O)c1Br` came in with an XC50 of 853 nM. The compound `O=C(/C=C/c1ccc(Cl)c(Cl)c1)NCCCCCN1CCCC(C(=O)Nc2ccc(F)c(Cl)c2)C1` (stereo not drawn) gave an XC50 of 903 nM. To `Nc1c(Cl)cc(C(O)CNCCCCCOCCc2ccc3occc3c2)cc1Cl` (stereo not drawn) belongs 690 nM; to `FC(F)(F)COc1ccc2ccccc2c1CNCCCCCCNCc1c(OCC(F)(F)F)ccc2ccccc12`, 352 nM; to `CCn1c(C=Cc2cc(Br)ccc2O)nc2ccccc2c1=O`, 654 nM. The compound `Cc1nc2c(c(O)c1Cl)-c1ccc(Oc3cccc(C(F)(F)F)c3)cc1C2=O` gave an XC50 of 37.9 nM. On to `Cc1nc(C)c(-c2ccc(Br)cc2)c(O)c1Br`, for which the XC50 is 638 nM.

On to `COCC(C)n1c(SC(C)C(=O)Nc2cc([N+](=O)[O-])ccc2Cl)nc2ccccc2c1=O` (stereo not drawn), for which the XC50 was determined as 229 nM. Compound `C=CCn1c(Sc2ccc(C#N)c([N+](=O)[O-])c2)nnc1-c1ccc(Cl)cc1` gave an XC50 of 667 nM. Regarding `CS(=O)(=O)c1ccc2nc(NC(=O)c3csnn3)sc2c1`, the XC50 is 666 nM. Compound `O=C1C(=Cc2cc(Cc3ccccc3)ccc2O)SC(=S)N1Cc1ccccc1` registered an XC50 of 943 nM. `O=C(Nc1ccc(C(F)(F)F)cc1)c1ccc(S(=O)(=O)NC2CCN(Cc3ccccc3)C2)cc1` (stereo not drawn) yielded an XC50 of 618 nM.

`COc1cc2c(cc1C(F)(F)F)N(C(=O)Nc1cc(F)cc(-c3cccnn3)c1)CC2` yielded an XC50 of 275 nM.

Consider `O=C(/C=C/c1ccc(Cl)cc1)NCCCCCN1CCCC(C(=O)Nc2ccc(Cl)cc2)C1` (stereo not drawn), for which the XC50 is 1050 nM.

`Cc1cc(CNC(=O)[C@H](CC2CCCCC2)Nc2ccc(C#N)c3ccccc23)c(C(F)(F)F)o1` registered an XC50 of 1180 nM. The compound `COc1ccc(C(=O)CCC(=O)N(Cc2ccc(-c3ccc(CNCCc4ccc(S(C)(=O)=O)cc4)cn3)cc2)Cc2ccc3c(c2)OCO3)cc1F` returned an XC50 of 943 nM. `CCN(CC)CCCOc1ccc(Nc2nccc(-c3c(-c4cccc(NC(=O)c5c(F)cccc5F)c4)nn4ccccc34)n2)cc1F` had an XC50 of 407 nM.

In turn, `Oc1ccc(Nc2nc(NCc3ccco3)c3ccccc3n2)cc1` displayed an XC50 of 674 nM.

Turning to `Clc1ccc(-c2cc(-c3csc(NCCN4CCCCC4)n3)on2)cc1`, the XC50 came out at 989 nM. Regarding `CC(C)(C)c1cc(C(=O)Nc2ccc(C(=N)N)cc2)c(O)c(C(C)(C)C)c1`, the XC50 turned out to be 763 nM. To `CCc1c(CCNC/C=C/C=C/CNCCc2ccc(OC)c(OC)c2CC)ccc(OC)c1OC` belongs 968 nM. As for `Cc1ccc(O)cc1Nc1ccnc2cc(-c3csc(CN4CCN(C)CC4)n3)ccc12`, the XC50 is 597 nM.

`CC(C)(C)CNc1noc(-c2sccc2Br)n1` displayed an XC50 of 1120 nM. To `CC1(C)N=C(N)N=C(NOCc2ccc(Cl)c(Cl)c2)N1` belongs 228 nM. As to `CC(C)CCN1CCCN(Cc2cccc(C(=O)Nc3ccc(C(C)(C)C)cc3)c2)CC1`, the XC50 worked out at 1100 nM. To `C/C=C/COc1ccc2ccccc2c1CNCCCCCCCCNCc1c(OC/C=C/C)ccc2ccccc12` belongs 908 nM; to `CCCCNC(=O)c1cc(CNC2CCCCC2)ccc1-c1cccc(CNCc2ccc(-c3ccccc3)cc2)c1`, 531 nM; to `Cn1cc(C(=O)Nc2cccc(-c3cccc(-c4nc5cc(F)ccc5[nH]4)c3)c2)n(C)c1=O`, 388 nM. In turn, `CC(C)NCc1ccc(-c2cccc(NC(=O)c3ccc(F)cc3)c2)cc1` gave an XC50 of 881 nM. `Nc1ncc(-c2cc3ccccc3o2)c(N)n1` yielded an XC50 of 1410 nM. To `O=C(Nc1ccc(Br)c(Cl)c1)c1cc([N+](=O)[O-])cc2cn[nH]c12` belongs 1060 nM; to `CC12CCC(CN(CC(O)Cn3c4ccccc4c4cc(I)ccc43)C1)C2(C)C` (stereo not drawn), 1160 nM; to `CCOc1ccc(C(=O)Nc2nonc2-c2ccc(OC)c(OC)c2)cc1`, 868 nM.

`Cc1cc(Nc2ccc(Cl)c(Cl)c2)n2nc(C)nc2n1` gave an XC50 of 258 nM.

For the compound `CN(c1cc(NC(=O)c2ccc(F)cc2)ccn1)C1CCN(Cc2cccc(O)c2)CC1`, the XC50 is 922 nM. On to `O=C(NCCCN(Cc1ccc(F)cc1)c1ccccn1)C(c1cc2ccccc2o1)N1CCN(C(c2ccccc2)c2ccccc2)CC1` (stereo not drawn), for which the XC50 amounted to 838 nM. In turn, `O=c1cc(NCCCNC2CCc3ccc(Cl)cc32)[nH]c2ccccc12` (stereo not drawn) returned an XC50 of 862 nM.

Compound `CCOc1ccc2c(c1)OC(c1ccccc1)(C(F)(F)F)NC2=O` (stereo not drawn) returned an XC50 of 167 nM. To `O=c1cc(NCCCNCc2cc(Br)cs2)[nH]c2ccccc12` belongs 1060 nM; to `NC1CCCN(Cc2cccc(-c3ccc(-c4nc5cc(F)ccc5[nH]4)cc3)c2)C1` (stereo not drawn), 566 nM; to `CCCCCCCCn1ccc(=N)cc1`, 840 nM. Turning to `CC(=O)Nc1ccc(OCCCCN(Cc2ccccc2OC(F)(F)F)c2ccc(C(F)(F)F)c(C#N)c2)c(Cl)c1`, the XC50 came out at 529 nM. `COc1ccc2nccc([C@@H](O)CN3CCC(NCc4cc5cc(Cl)ccc5[nH]4)CC3)c2c1`: the XC50 was found to be 128 nM. The compound `COc1ccc2ccccc2c1CCCCN1CCN(CC(c2ccc(F)cc2)N2CCC(N3CCCC3)CC2)CC1` (stereo not drawn) yielded an XC50 of 619 nM. Turning to `CC(C)(C)c1ccc(NC(=O)c2cccc(CN3CCCN(Cc4cccc(C#N)c4)CC3)c2)cc1`, the XC50 came out at 755 nM. `FC(F)(F)Oc1ccc(-c2cnc3ccc(NCc4ccncc4)nn23)cc1` yielded an XC50 of 866 nM.

In the case of `Cc1cccc(Nc2nc3nonc3nc2Nc2cccc(Cl)c2Cl)c1C`, the XC50 is 1030 nM. Turning to `O=C(c1cc2nc3c(c(C(F)(F)F)n2n1)CCc1ccccc1-3)N1CCN2CCCC2C1` (stereo not drawn), the XC50 turned out to be 947 nM.

In turn, `NC1CCCN(Cc2ccc(-c3cccc(-c4nc5ccccc5[nH]4)c3)cc2)C1` (stereo not drawn) displayed an XC50 of 721 nM.

In turn, `Cc1cc(C(=O)Nc2ccc(-c3ccccc3)cc2)no1` showed an XC50 of 694 nM. For the compound `NS(=O)(=O)c1cccc(Nc2nccc(-c3c(-c4cccc(NC(=O)c5c(F)cccc5F)c4)nn4ccccc34)n2)c1`, the XC50 was 73.6 nM. Compound `O=c1cc(NCCCNCc2cccc(SC(F)(F)F)c2)[nH]c2ccccc12` yielded an XC50 of 725 nM.

As for `CO/C(=C\C=C\c1cc2cc(Cl)c(Cl)cc2[nH]1)C(=O)N[C@H]1CN2CCC1CC2`, the XC50 turned out to be 1210 nM. The compound `O=C1C(c2ccccc2)=C(Nc2cccc(OC(F)(F)C(F)F)c2)c2ccccc21` returned an XC50 of 180 nM. Regarding `CN(Cc1cc(C(F)(F)F)cc(C(F)(F)F)c1)C(=O)C(Cc1ccc(F)cc1)C1CCCNC1` (stereo not drawn), the XC50 is 1540 nM. To `COc1ccc2nccc(NC(=O)N3CCC(NCc4cc5ccccc5[nH]4)CC3)c2n1` belongs 556 nM; to `Nc1ccc(-c2csc(Nc3ccncc3)n2)cc1`, 939 nM. To `COc1ccc(-n2nc(C)cc2C(=O)NCc2ccc(-c3c(C)noc3C)cc2)cc1` belongs 980 nM; to `CCOc1cc(C(=O)NCCN(C(C)C)C(C)C)ccc1-c1nc2cc(Cl)ccc2[nH]1`, 778 nM; to `O=C(NC1CC1)C1CCN(Cc2cc3ccccc3n2Cc2ccc(Cl)cc2)CC1`, 489 nM. For `Cc1[nH]c(C)c(-c2ccc(/C=C/c3ccccn3)cc2)c(=O)c1Cl`, the XC50 stood at 516 nM. As for `Cc1cccc(CNc2nccc3[nH]c4ccccc4c23)c1`, the XC50 is 1900 nM. `COc1cc(C(C)C)ccc1N1CCN(CCCCNC(=O)c2ccc(NC(=O)c3ccc(Cl)cc3)cc2)CC1` came in with an XC50 of 576 nM.

`COc1ccc2nccc([C@@H](O)CN3CCC(NC(=O)/C=C/c4ccnc5ccccc45)CC3)c2c1`: the XC50 is 939 nM.

`CCN(CC)C(=O)C1CCCN(c2cc(C)nc(Nc3ccc(Cl)cc3)n2)C1` (stereo not drawn) gave an XC50 of 718 nM.
